# Data reported in PubChem BioAssay AID2060508 (Molecular Pharmacology Branch, DTP, NCI, 2025).
# System: 454973-116-R2-J3-PDC spheroids, viability, % test/control
# Assay: Anticancer human tumor 454973-116-R2-J3-PDC patient-derived pancreatic carcinoma cell line growth inhibition [GQUAD]
# Conditions: spheroids with HUVEC and MSC; for IC50: curve of first compound; for viability, T/C: stronger effect = lower value
# In short: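 Viability of tumor cells grown as complex spheroids with endothelial and stromal cells, exposed to drug combinations. Top concentration at or near clinical Cmax (else 10 microM), diluted in half-log increments.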
# [1] = second compound 0.0316 µM, first compound 0.0316 µM
# [2] = second compound 0.0316 µM, first compound 0.1 µM
# [3] = second compound 0.0316 µM, first compound 0.316 µM
# [4] = second compound 0.0316 µM, first compound 1 µM
# [5] = second compound 0.0316 µM, first compound 3.16 µM
# [6] = second compound 0.0316 µM, first compound 10 µM
# [7] = second compound 0.1 µM, first compound 0.0316 µM
# [8] = second compound 0.1 µM, first compound 0.1 µM
# [9] = second compound 0.1 µM, first compound 0.316 µM
# [10] = second compound 0.1 µM, first compound 1 µM
# [11] = second compound 0.1 µM, first compound 3.16 µM
# [12] = second compound 0.1 µM, first compound 10 µM
# [13] = second compound 0.316 µM, first compound 0.0316 µM
# [14] = second compound 0.316 µM, first compound 0.1 µM
# [15] = second compound 0.316 µM, first compound 0.316 µM
# [16] = second compound 0.316 µM, first compound 1 µM
# [17] = second compound 0.316 µM, first compound 3.16 µM
# [18] = second compound 0.316 µM, first compound 10 µM
# [19] = second compound 1 µM, first compound 0.0316 µM
# [20] = second compound 1 µM, first compound 0.1 µM
# [21] = second compound 1 µM, first compound 0.316 µM
# [22] = second compound 1 µM, first compound 1 µM
# [23] = second compound 1 µM, first compound 3.16 µM
# [24] = second compound 1 µM, first compound 10 µM
# [25] = second compound 3.16 µM, first compound 0.0316 µM
# [26] = second compound 3.16 µM, first compound 0.1 µM
# [27] = second compound 3.16 µM, first compound 0.316 µM
# [28] = second compound 3.16 µM, first compound 1 µM
# [29] = second compound 3.16 µM, first compound 3.16 µM
# [30] = second compound 3.16 µM, first compound 10 µM
# [31] = second compound 10 µM, first compound 0.0316 µM
# [32] = second compound 10 µM, first compound 0.1 µM
# [33] = second compound 10 µM, first compound 0.316 µM
# [34] = second compound 10 µM, first compound 1 µM
# [35] = second compound 10 µM, first compound 3.16 µM
# [36] = second compound 10 µM, first compound 10 µM
# 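Also: spheroids exposed to compounds for seven days.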
# 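For viability, T/C in this document: 100% = DMSO vehicle control viability.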
smiles,measurement,setting,value
O=C(NO)c1cnc(N2CCN(S(=O)(=O)c3ccc4ccccc4c3)CC2)nc1 + CN(C)c1ccc(Nc2c3ccc(NC(=O)CCN4CCCC4)cc3nc3cc(NC(=O)CCN4CCCC4)ccc23)cc1,IC50,second compound 0.0316 µM,0.212 µM
same,IC50,second compound 0.1 µM,0.202 µM
same,IC50,second compound 0.316 µM,0.197 µM
same,IC50,second compound 1 µM,0.195 µM
same,IC50,second compound 3.16 µM,0.178 µM
same,IC50,second compound 10 µM,0.141 µM
same,"viability, T/C",[1],107%
same,"viability, T/C",[2],89.7%
same,"viability, T/C",[3],28.9%
same,"viability, T/C",[4],3.06%
same,"viability, T/C",[5],0.12%
same,"viability, T/C",[6],1%
same,"viability, T/C",[7],102%
same,"viability, T/C",[8],83.4%
same,"viability, T/C",[9],28.9%
same,"viability, T/C",[10],2.6%
same,"viability, T/C",[11],0.1%
same,"viability, T/C",[12],0.19%
same,"viability, T/C",[13],86%
same,"viability, T/C",[14],83.4%
same,"viability, T/C",[15],26.8%
same,"viability, T/C",[16],3.25%
same,"viability, T/C",[17],0.11%
same,"viability, T/C",[18],0.17%
same,"viability, T/C",[19],81.4%
same,"viability, T/C",[20],77.2%
same,"viability, T/C",[21],30.3%
same,"viability, T/C",[22],3.47%
same,"viability, T/C",[23],0.09%
same,"viability, T/C",[24],0.35%
same,"viability, T/C",[25],77.8%
same,"viability, T/C",[26],70.8%
same,"viability, T/C",[27],29.4%
same,"viability, T/C",[28],2.84%
same,"viability, T/C",[29],0.54%
same,"viability, T/C",[30],0.91%
same,"viability, T/C",[31],59.5%
same,"viability, T/C",[32],55.8%
same,"viability, T/C",[33],34.1%
same,"viability, T/C",[34],2.57%
same,"viability, T/C",[35],0.19%
same,"viability, T/C",[36],0.77%
CCc1c2c(nc3ccc(O)cc13)-c1cc3c(c(=O)n1C2)COC(=O)[C@]3(O)CC + CN(C)c1ccc(Nc2c3ccc(NC(=O)CCN4CCCC4)cc3nc3cc(NC(=O)CCN4CCCC4)ccc23)cc1,IC50,second compound 0.0316 µM,0.00167 µM
same,IC50,second compound 0.1 µM,0.00171 µM
same,IC50,second compound 0.316 µM,0.00152 µM
same,IC50,second compound 1 µM,0.00168 µM
same,IC50,second compound 3.16 µM,0.00163 µM
same,IC50,second compound 10 µM,0.00148 µM
same,"viability, T/C","second compound 0.0316 µM, first compound 0.000999 µM",67.9%
same,"viability, T/C","second compound 0.0316 µM, first compound 0.00316 µM",23.9%
same,"viability, T/C","second compound 0.0316 µM, first compound 0.00999 µM",21.6%
same,"viability, T/C",[1],15.2%
same,"viability, T/C","second compound 0.0316 µM, first compound 0.0999 µM",6.24%
same,"viability, T/C",[3],5.45%
same,"viability, T/C","second compound 0.1 µM, first compound 0.000999 µM",68.1%
same,"viability, T/C","second compound 0.1 µM, first compound 0.00316 µM",25.9%
same,"viability, T/C","second compound 0.1 µM, first compound 0.00999 µM",21.8%
same,"viability, T/C",[7],14.1%
same,"viability, T/C","second compound 0.1 µM, first compound 0.0999 µM",6.39%
same,"viability, T/C",[9],4.95%
same,"viability, T/C","second compound 0.316 µM, first compound 0.000999 µM",61.4%
same,"viability, T/C","second compound 0.316 µM, first compound 0.00316 µM",27.2%
same,"viability, T/C","second compound 0.316 µM, first compound 0.00999 µM",22.3%
same,"viability, T/C",[13],12.3%
same,"viability, T/C","second compound 0.316 µM, first compound 0.0999 µM",7.81%
same,"viability, T/C",[15],5.5%
same,"viability, T/C","second compound 1 µM, first compound 0.000999 µM",65.6%
same,"viability, T/C","second compound 1 µM, first compound 0.00316 µM",27.5%
same,"viability, T/C","second compound 1 µM, first compound 0.00999 µM",23.8%
same,"viability, T/C",[19],11.9%
same,"viability, T/C","second compound 1 µM, first compound 0.0999 µM",8.79%
same,"viability, T/C",[21],5.09%
same,"viability, T/C","second compound 3.16 µM, first compound 0.000999 µM",62.5%
same,"viability, T/C","second compound 3.16 µM, first compound 0.00316 µM",30.7%
same,"viability, T/C","second compound 3.16 µM, first compound 0.00999 µM",24.4%
same,"viability, T/C",[25],13.8%
same,"viability, T/C","second compound 3.16 µM, first compound 0.0999 µM",11.1%
same,"viability, T/C",[27],5.7%
same,"viability, T/C","second compound 10 µM, first compound 0.000999 µM",59.1%
same,"viability, T/C","second compound 10 µM, first compound 0.00316 µM",31.2%
same,"viability, T/C","second compound 10 µM, first compound 0.00999 µM",24.9%
same,"viability, T/C",[31],19.7%
same,"viability, T/C","second compound 10 µM, first compound 0.0999 µM",12.6%
same,"viability, T/C",[33],9.24%
COc1ncnc(C2CC2)c1-c1ncc2cnn(Cc3ccc(-c4nc(C(F)(F)F)cn4C(C)C)cc3)c2n1 + CN(C)c1ccc(Nc2c3ccc(NC(=O)CCN4CCCC4)cc3nc3cc(NC(=O)CCN4CCCC4)ccc23)cc1,IC50,second compound 0.0316 µM,> 10 µM
same,IC50,second compound 0.1 µM,> 10 µM
same,IC50,second compound 0.316 µM,> 10 µM
same,IC50,second compound 1 µM,> 10 µM
same,IC50,second compound 3.16 µM,> 10 µM
same,IC50,second compound 10 µM,> 10 µM
same,"viability, T/C",[1],104%
same,"viability, T/C",[2],113%
same,"viability, T/C",[3],97.6%
same,"viability, T/C",[4],102%
same,"viability, T/C",[5],99.5%
same,"viability, T/C",[6],102%
same,"viability, T/C",[7],102%
same,"viability, T/C",[8],114%
same,"viability, T/C",[9],114%
same,"viability, T/C",[10],108%
same,"viability, T/C",[11],84.8%
same,"viability, T/C",[12],95.4%
same,"viability, T/C",[13],94.2%
same,"viability, T/C",[14],104%
same,"viability, T/C",[15],102%
same,"viability, T/C",[16],101%
same,"viability, T/C",[17],91.6%
same,"viability, T/C",[18],90.6%
same,"viability, T/C",[19],96.3%
same,"viability, T/C",[20],96.2%
same,"viability, T/C",[21],101%
same,"viability, T/C",[22],106%
same,"viability, T/C",[23],94.2%
same,"viability, T/C",[24],97.1%
same,"viability, T/C",[25],86.2%
same,"viability, T/C",[26],91.6%
same,"viability, T/C",[27],105%
same,"viability, T/C",[28],87%
same,"viability, T/C",[29],93.5%
same,"viability, T/C",[30],78.5%
same,"viability, T/C",[31],71%
same,"viability, T/C",[32],69.4%
same,"viability, T/C",[33],77.2%
same,"viability, T/C",[34],66.5%
same,"viability, T/C",[35],61.9%
same,"viability, T/C",[36],50.8%
